In patent publication US11141464B2, “GLP-1 polypeptide having GLP-1 receptor agonist activity and use thereof” (Liu Jianning, priority 2018, dated 2021):
Where no end group is shown, it is not given here.

Key:
[1] = molecular target: dipeptidyl peptidase IV (DPP-IV) (Homo sapiens, UniProt P27487); conditions: variants with the 8-position alanine replaced, compared with GLP-1 or its fragment; cited from earlier work
STZ rats = experiment: Efficacy study by subcutaneous administration in the experimental animal model of type 2 diabetes (STZ rats), blood glucose; format: in vivo, Male Wistar rats; conditions: for Blood glucose concentration at 0 hour (mM, mean ± sem): 0 hour (start of experiment, time of injection)
Method: 1) The Experimental Animal Model of Type 2 Diabetes Male Wistar rats of approximately 200 grams were fasted overnight with free access to water. The rats were administered a single dose of streptozotocin (STZ) by intraperitoneal injection (ip) in an amount of 45 mg/Kg. Then, the rats were normally fed and tested for fasting blood glucose. […] 2) Experimental Method Forty-eight rats were randomly divided into 6 groups, with each of 8 rats. […] At 0 hour, the STZ rats were injected subcutaneously with different doses of drugs for test. At 3, 6, and 9 hours, blood samples were taken from the vein of the rats' tail. The blood samples were tested to provide the blood glucose concentrations of the rats.

[2] = tested on: patients with type 2 diabetes; conditions: after 6 weeks of GLP-1 treatment; cited from earlier work

Sequence of dipeptidyl peptidase IV (DPP-IV) (P27487 whole entry, species assumed, the tested form may be a part): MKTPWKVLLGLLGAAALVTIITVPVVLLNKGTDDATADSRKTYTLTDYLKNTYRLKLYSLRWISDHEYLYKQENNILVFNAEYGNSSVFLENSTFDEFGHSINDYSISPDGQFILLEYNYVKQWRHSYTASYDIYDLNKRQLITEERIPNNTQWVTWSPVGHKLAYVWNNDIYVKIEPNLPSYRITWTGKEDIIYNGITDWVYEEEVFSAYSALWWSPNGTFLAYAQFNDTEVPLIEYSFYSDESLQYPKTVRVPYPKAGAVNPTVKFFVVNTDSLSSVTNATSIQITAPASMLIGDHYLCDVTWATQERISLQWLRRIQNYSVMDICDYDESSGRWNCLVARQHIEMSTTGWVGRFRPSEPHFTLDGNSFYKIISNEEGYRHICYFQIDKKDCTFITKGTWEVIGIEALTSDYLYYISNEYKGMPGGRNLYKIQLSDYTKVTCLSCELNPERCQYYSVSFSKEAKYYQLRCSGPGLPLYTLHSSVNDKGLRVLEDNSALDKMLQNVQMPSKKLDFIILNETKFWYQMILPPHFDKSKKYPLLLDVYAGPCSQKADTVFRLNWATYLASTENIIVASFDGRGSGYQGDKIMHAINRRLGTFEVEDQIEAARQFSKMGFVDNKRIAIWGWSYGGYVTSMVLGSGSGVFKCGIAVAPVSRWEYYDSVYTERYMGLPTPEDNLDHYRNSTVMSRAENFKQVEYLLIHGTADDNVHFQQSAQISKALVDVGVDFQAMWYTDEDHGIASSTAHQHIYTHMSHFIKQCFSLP

Gly^8-GLP-1 (HDEFERHGEGTFTSDVSSYLEGQAAKEFIAWLVKGRG; Glucagon-like peptide 1; UniProt P01275 92-128, looked up, variant A8G) [variant obtained by replacing the 8-position alanine of GLP-1 or a fragment thereof with glycine]
resistance to DPP-IV mediated degradation [1]: increased resistance

His-Gly-Glu-Gly-Thr-Phe-Pro-Ser-Asp-Val-Ser-Ser-Tyr-Leu-Glu-Gly-Gln-Ala-Ala-Lys-Glu-Phe-Ile-Ala-Trp-Leu-Val-Lys-Gly-Arg-NH2 (HGEGTFPSDVSSYLEGQAAKEFIAWLVKGR-NH2) [Gly^8-Pro^13-GLP-1(7-36)NH2, GLP-1 polypeptide with T13P mutation]
Blood glucose concentration at 0 hour (mM, mean ± sem) (STZ rats; 1 μg/kg subcutaneous): 27.4 ± 0.8 mM
Blood glucose concentration at 3 hour (mM, mean ± sem) (STZ rats; 1 μg/kg subcutaneous): 23.4 ± 1.1 mM
Blood glucose concentration at 6 hour (mM, mean ± sem) (STZ rats; 1 μg/kg subcutaneous): 19.5 ± 0.5 mM
Blood glucose concentration at 9 hour (mM, mean ± sem) (STZ rats; 1 μg/kg subcutaneous): 16.3 ± 0.7 mM
Blood glucose concentration at 0 hour (mM, mean ± sem) (STZ rats; 10 μg/kg subcutaneous): 24.0 ± 1.1 mM
Blood glucose concentration at 3 hour (mM, mean ± sem) (STZ rats; 10 μg/kg subcutaneous): 18.5 ± 0.9 mM
Blood glucose concentration at 6 hour (mM, mean ± sem) (STZ rats; 10 μg/kg subcutaneous): 14.5 ± 0.8 mM
Blood glucose concentration at 9 hour (mM, mean ± sem) (STZ rats; 10 μg/kg subcutaneous): 10.5 ± 0.6 mM
blood-glucose lowering effect compared with reference drugs (STZ rats; subcutaneous, comparison from the data of Table 1 (vs Liraglutide P<0.01)): significantly better than that of Liraglutide

Ser^8-GLP-1 (HDEFERHSEGTFTSDVSSYLEGQAAKEFIAWLVKGRG; Glucagon-like peptide 1; UniProt P01275 92-128, looked up, variant A8S) [variant obtained by replacing the 8-position alanine of GLP-1 or a fragment thereof with serine]
resistance to DPP-IV mediated degradation [1]: increased resistance

Thr^8-GLP-1 (HDEFERHTEGTFTSDVSSYLEGQAAKEFIAWLVKGRG; Glucagon-like peptide 1; UniProt P01275 92-128, looked up, variant A8T) [variant obtained by replacing the 8-position alanine of GLP-1 or a fragment thereof with threonine]
resistance to DPP-IV mediated degradation [1]: increased resistance

^1HDEFERHAEGTFTSDVSSYLEGQAAKEFIAWLVKGRG [GLP-1, Glucagon-like peptide-1, a polypeptide containing 37 amino acids]
average weight loss [2]: 1.9 kg
